The source of these data is patent US9206186B2, “2-phenoxy- and 2-phenylsulfonamide derivatives with CCR3 antagonistic activity for the treatment of inflammatory or immunological disorders” (AXIKIN PHARMACEUTICALS, INC., priority 2003, dated 2015).

The target in series [1] is T1, Human CCR3 (Homo sapiens, UniProt P51677).
T1 construct: The cloned CCR3 cDNA was constructed with pcDNA3 vector and transfected into a K562 cell line; expressed in transfected cells
T1 sequence (P51677 1-355): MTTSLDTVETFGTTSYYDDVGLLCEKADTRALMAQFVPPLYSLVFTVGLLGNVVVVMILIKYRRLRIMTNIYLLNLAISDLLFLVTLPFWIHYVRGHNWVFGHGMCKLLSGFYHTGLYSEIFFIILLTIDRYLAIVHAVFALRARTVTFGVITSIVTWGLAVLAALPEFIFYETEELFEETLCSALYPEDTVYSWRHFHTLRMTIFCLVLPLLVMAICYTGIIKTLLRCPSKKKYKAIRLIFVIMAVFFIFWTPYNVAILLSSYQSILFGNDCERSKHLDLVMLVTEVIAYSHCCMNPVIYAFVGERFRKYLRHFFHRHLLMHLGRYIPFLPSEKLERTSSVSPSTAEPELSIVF
In words: Calcium mobilization assay (Ca2+), eotaxin-stimulated human CCR3-transformed K562 cells. In kind it is cell-based. To be noted: compounds of about 40 to 90% purity, read-out: Activity grade IC50. Here is the method: • Human CCR3-transformed K562 cells were used. The cloned CCR3 cDNA was constructed with pcDNA3 vector and transfected into a K562 cell line. The human CCR3-transformed K562 cells were maintained in RPMI-1640 (Cat.#22400-089, Life Technologies) supplemented with 10% FCS (Cat.#A-1115-L, Hyclone), 55 μM 2-mercaptoethanol (Cat.#21985-023, Life Technologies), 1 mM sodium pyruvate (Cat.#11360-070, Life Technologies), 100 units/ml of penicillin G and 100 μg/ml of streptomycin (Cat.#15140-122, Life Technologies), and 0.4 mg/ml of Geneticin (Cat.#10131-035, Life Technologies) (hereinafter called “culture medium”). Before the receptor binding assay, cells were pretreated with 5 mM sodium butyrate (Cat.#193-01522, Wako)-containing the culture medium (2×10^5 cells/ml) for 20-24 hours to increase the expression of CCR3. (2) Receptor Binding Assay • Butyrate-pretreated cells, suspended in binding buffer (25 mM HEPES pH 7.6, 1 mM CaCl2, 5 mM MgCl2, 0.5% BSA, 0.1% NaN3) at a cell density of 2×10^6 cells/ml, were added into 60 μl/well in the 96-well round bottom polypropylene plate (Cat.#3365, Costar). Compounds, diluted with the binding buffer (4-times higher concentration of the final concentration), were added into 30 μl/well in the polypropylene plate. [^125I]-labeled human eotaxin (Cat.#IM290, Amersham Pharmacia Biotech), diluted with the binding buffer at the concentration of 0.4 nM (final concentration; 0.1 nM), was added into 30 μl/well in the polypropylene plate. Total 120 μl/well of binding reaction mixture (60 μl/well of cell suspension, 30 μl/well of compound solution, and 30 μl/well of [^125I]-labeled eotaxin) were incubated in the polypropylene plate for 1 hour at room temperature after the incubation, 100 μl/well of the reaction mixture was transferred to a filtration plate (Cat.#MAFB-N0B, Millipore), and washed with the washing buffer (25 mM HEPES pH 7.6, 1 mM CaCl2, 5 mM MgCl2, 0.5% BSA, 0.1% NaN3, 0.5 M NaCl) twice. The 96-well filtration plate was pretreated with 100 μl/well of 0.5% polyethylenimine (Cat.#P-3143, Sigma) for 2-4 hours at room temperature and washed with the washing buffer twice before use. The non-specific binding was determined by parallel incubation in the presence of 500 nM of non-labeled eotaxin (Cat.#23209, Genzyme Techne). The radioactivities remained on the filter were measured by liquid scintillation counter (TopCount™, Packard) after an addition of 45 μl/well of scintillant (Microscint20, Cat.#6013621, Packard). The inhibition percent at each concentration of compound was calculated, and IC50 values were determined from the inhibition curve. [Determination of IC50 Values of Compounds in Calcium Mobilization Assay] (1) Cell • Human CCR3-transformed K562 cells were used. The human CCR3-transformed K562 cells were maintained in RPMI-1640 supplemented with 10% FCS, 55 μM 2-mercaptoethanol (Cat.#21985-023, Life Technologies), 1 mM sodium pyruvate, 100 units/ml of penicillin G and 100 μg/ml of streptomycin, and 0.4 mg/ml of Geneticin. Before the calcium mobilization assay, cells were pretreated with 5 mM sodium butyrate-containing the culture medium (2×10^5 cells/ml) for 20-24 hours to increase the expression of CCR3. (2) Calcium Mobilization Assay • Butyrate-pretreated cells were loaded with Fluo-3AM (Cat.#F-1242, Molecular Probes) in loading buffer (Hanks' solution Cat.#05906 Nissui, 20 mM HEPES pH 7.6, 0.1% BSA, 1 mM probenecid Cat.#P-8761 Sigma, 1 μM Fluo-3AM, 0.01% pluronic F-127 Cat.#P-6866 Molecular Probes) at a cell density of 1×10^7 cells/ml. Then, cells were washed with calcium assay buffer (Hanks' solution Cat.#05906 Nissui, 20 mM HEPES pH 7.6, 0.1% BSA, 1 mM Probenecid Cat.#P-8761 Sigma). The cell suspension (3.3×10^6 cells/ml) was added into 60 μl/well in the 96-well clear bottom black plate (Cat.#3904, Costar). Compounds, diluted (5-times concentration of the final concentration) with the calcium assay buffer, were added into 20 μl/well in the plate 10 minutes before assay. […]
For orientation: Calcium assays in cells follow changes in intracellular calcium, usually with a dye or a luminescent sensor.

Structures can show the parent of a compound that is named as a salt. A value given as a limit tells only on which side of the number the result lay.

A word on the melting point: it is the temperature, or range, at which the solid turns liquid. Turning to `N#Cc1ccc(Oc2cc(Cl)cc(Cl)c2)c(S(=O)(=O)C2CCNCC2)c1` (as salt: hydrochloride) [Example 2-1, 4-(3,5-Dichloro-phenoxy)-3-(piperidine-4-sulfonyl)-benzonitrile], the melting point is 220 to 226 °C (dec.). On the same count and under the same terms, the figure for `O=[N+]([O-])c1ccc(Sc2cc(Cl)cc(Cl)c2)c(S(=O)(=O)N[C@H]2CN3CCC2CC3)c1` (stereo in doubt) is 256 °C. Usually IC50 stands for the concentration needed to halve the response being measured. Turning to `CC(C)(C)[Si](C)(C)O[C@H]1CN(C2CCN(S(=O)(=O)c3cc(C#N)ccc3Oc3cc(Cl)cc(Cl)c3)CC2)C[C@@H]1O` [Example 1-14], the concentration for half-maximal inhibition (IC50) in series [1] lay in the range of 0.1 to 0.5 µM. In turn, `N#Cc1ccc(Oc2cc(Cl)cc(Cl)c2)c(S(=O)(=O)N2CC[C@H](N(CCO)CCO)C2)c1` [Example 1-15] showed a melting point of 153 to 154 °C. Besides, in series [1], the IC50 lay within 0.1 to 0.5 µM. The matching figures for `N#Cc1ccc(Oc2cc(Cl)cc(Cl)c2)c(S(=O)(=O)N[C@@H]2CC3OC3C[C@@H]2N)c1` (stereo partly drawn) [Example 1-17]: 165 to 182 °C (dec.) and greater than 0.5 µM. Take `N#Cc1ccc(Oc2cc(Cl)cc(Cl)c2)c(S(=O)(=O)N2CC[C@H](N3C[C@H](O)[C@@H](O)C3)C2)c1` [Example 1-18]: the IC50 in series [1] was in the range of 0.1 to 0.5 µM.

On to `N#Cc1ccc(Oc2cc(Cl)cc(Cl)c2)c(S(=O)(=O)N[C@@H]2C[C@H](O)[C@@H](O)C[C@@H]2N)c1` [Example 1-19], for which the IC50 in series [1] was greater than 0.5 µM. Turning to `Cl.Cl.N#Cc1ccc(Oc2cc(Cl)cc(Cl)c2)c(S(=O)(=O)N2CCNC(CN)C2)c1` (stereo not drawn) [Example 1-20], the melting point is 240 to 241 °C. Also, the IC50 in series [1] was greater than 0.5 µM. Turning to `CN(C)CCN(C)CCN(C)S(=O)(=O)c1cc(C#N)ccc1Oc1cc(Cl)cc(Cl)c1` [Example 1-23], in series [1], the half-inhibitory concentration (IC50) is 0.1 to 0.5 µM. For `N#Cc1ccc(Oc2cc(Cl)cc(Cl)c2)c(S(=O)(=O)NC2CCCCNC2=O)c1` (stereo not drawn) [Example 1-24], the melting point was 172 to 173 °C. In addition, the IC50 in series [1] lay within 0.1 to 0.5 µM. Consider `COC(=O)C1CN(C2CCNCC2)CCCN1S(=O)(=O)c1cc(C#N)ccc1Oc1cc(Cl)cc(Cl)c1` (stereo not drawn) [Example 1-25], for which the concentration for half-maximal inhibition (IC50) in series [1] was in the range of 0.1 to 0.5 µM. On the same count and under the same terms, with `O=S(=O)(c1cc(-n2cnnn2)ccc1Oc1cc(Cl)cc(Cl)c1)N1CCNCC1` [Example 1-30] the figure was greater than 0.5 µM. For the compound `N#Cc1ccc(Oc2cc(Cl)cc(Cl)c2)c(S(=O)(=O)N(CCN2C(=O)CCC2=O)[C@H]2CN3CCC2CC3)c1` [Example 1-38], the concentration for half-maximal inhibition (IC50) in series [1] is greater than 0.5 µM. `CN(C)CC(NS(=O)(=O)c1cc(C#N)ccc1Oc1cc(Cl)cc(Cl)c1)C(=O)O` (stereo not drawn) [Example 1-40] registered a melting point of 190 °C. Further, the concentration for half-maximal inhibition (IC50) in series [1] is greater than 0.5 µM.

Regarding `N#Cc1ccc(Oc2cc(Cl)cc(Cl)c2)c(S(=O)(=O)NC2CN(Cc3ccccc3)CCN(Cc3ccccc3)C2)c1` [Example 1-41], in series [1], the IC50 is greater than 0.5 µM. Take `Cl.N#Cc1ccc(Oc2cc(Cl)cc(Cl)c2)c(S(=O)(=O)C2CCNCC2)c1` [Example 1-47]: the melting point was 220 to 226 °C (dec.).
